# Measured values reported in patent US20230095836A1, “SUBSTITUTED 5,6-DIPHENYL-3(2H)-PYRIDAZINONES FOR USE AS FUNGICIDES” (FMC Corporation, priority 2020, published 2023).
# Tests used:
# Type in all cases: in vivo
# [1] = test system: Puccinia recondita f. sp. tritici; experiment: Test B: test solution sprayed on wheat seedlings, inoculated next day with Puccinia recondita f. sp. tritici (wheat leaf rust); disease rating (100 = 100% disease control, 0 = no control; dash = not tested)
# Source text: The resulting test suspensions were then used in Tests A-F. The test solution was sprayed to the point of run-off on wheat seedlings. […] A rating of 100 indicates 100% disease control and a rating of 0 indicates no disease control (relative to the controls). A dash (—) indicates the compound was not tested.
# Phakopsora pachyrhizi = experiment: Test D: test solution sprayed on soybean seedlings, inoculated next day with Phakopsora pachyrhizi (Asian soybean rust); visual disease rating (100 = 100% disease control, 0 = no control; dash = not tested)
# Procedure, shortened: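 Preventive spray test: soybean seedlings treated to run-off with ppm-level suspensions (acetone/water 50/50, 250 ppm PEG400), spore-inoculated one day later. Held 24 h at 22 °C in saturated air, then 8 days at 22 °C; disease control scored visually versus untreated plants, 0 = none, 100 = complete.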
# Zymoseptoria tritici = experiment: Test A: test solution sprayed on wheat seedlings, inoculated next day with Zymoseptoria tritici (wheat leaf blotch); disease rating (100 = 100% disease control, 0 = no control; dash = not tested)
# Procedure, shortened: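 Preventive spray test: compound applied to run-off one day before spore inoculation of wheat seedlings. Incubation was 48 h saturated humidity at 24° C followed by 17 days at 20° C. Disease then scored 0–100 as % control versus untreated plants.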
# Botrytis cinerea = experiment: Test E: test suspension sprayed on tomato seedlings, inoculated next day with Botrytis cinerea (tomato Botrytis); visual disease rating (100 = 100% disease control, 0 = no control; dash = not tested)
# Procedure, shortened: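 Spores were applied one day after spraying the seedlings to run-off. Incubation was 48 h saturated at 20° C, then 3 days in a 24° C growth chamber. Visual ratings, relative to untreated controls, run from 0 (no control) to 100 (complete control).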
# Alternaria solani = experiment: Test F: test suspension sprayed on tomato seedlings, inoculated next day with Alternaria solani (tomato early blight); visual disease rating (100 = 100% disease control, 0 = no control; dash = not tested)
# Procedure, shortened: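 Visual ratings of % disease control versus controls were made after inoculated plants spent 48 h at 27° C. in saturated air plus 3 days at 20° C. The compound suspension had been sprayed to run-off one day before spore inoculation.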
# [2] = test system: Blumeria graminis f. sp. tritici; experiment: Test C: test suspension sprayed on wheat seedlings, inoculated next day with Blumeria graminis f. sp. tritici (wheat powdery mildew); visual disease rating (100 = 100% disease control, 0 = no control; dash = not tested)
# Procedure, shortened: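 Visual ratings of disease control (0–100, relative to controls) were made 8 days after inoculation with B. graminis f. sp. tritici spore dust. Plants were held at 20 °C. Compound was applied as a spray to run-off one day before inoculation.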
SMILES,Test B disease control rating ([1]; 50 ppm) [%],Test D disease control rating (Phakopsora pachyrhizi; 50 ppm) [%],Test A disease control rating (Zymoseptoria tritici; 50 ppm) [%],Test E disease control rating (Botrytis cinerea; 50 ppm) [%],Test F disease control rating (Alternaria solani; 50 ppm) [%],Test C disease control rating ([2]; 50 ppm) [%],further results
COc1ccc(Cl)c(C2=NN(C)C(=O)C(C)C2c2c(F)cccc2F)c1 (stereo not drawn) [Compound 208],100,0,96,100,100,99,–
COc1cccc(-c2nn(C)c(=O)c(OC)c2-c2ccc(F)cc2Cl)c1Cl [Compound 146],100,96,100,98,99,100,–
Cn1nc(-c2ccc(F)cc2Cl)c(-c2ccc(F)cc2Cl)c(CF)c1=O [Compound 171],99,0,99,100,96,99,–
COc1cc(F)c(Cl)c(-c2nn(C)c(=O)c(OC)c2-c2ccc(F)cc2Cl)c1 [Compound 164],100,100,100,99,100,99,–
COc1ccc(-c2nn(C)c(=O)cc2-c2c(F)cccc2F)c(F)c1 [Compound 192],–,–,–,–,–,–,Test B disease control rating ([1]; 250 ppm): 80%; Test D disease control rating (Phakopsora pachyrhizi; 250 ppm): 91%; Test A disease control rating (Zymoseptoria tritici; 250 ppm): 38%; Test E disease control rating (Botrytis cinerea; 250 ppm): 93%; Test F disease control rating (Alternaria solani; 250 ppm): 0%; Test C disease control rating ([2]; 250 ppm): 84%
Cn1nc(-c2ccc(F)cc2Cl)c(-c2ccc(F)cc2Cl)c(C(C)(C)O)c1=O [Compound 123],0,68,0,0,0,0,–
COc1cc(F)cc(-c2nn(C)c(=O)c(Cl)c2-c2ccc(F)cc2Cl)c1Br [Compound 158],100,100,100,99,99,100,–
CON(C)C(=O)c1c(-c2ccc(F)cc2Cl)c(-c2ccc(F)cc2Cl)nn(C)c1=O [Compound 176],–,–,–,–,–,–,Test B disease control rating ([1]; 250 ppm): 80%; Test D disease control rating (Phakopsora pachyrhizi; 250 ppm): 0%; Test A disease control rating (Zymoseptoria tritici; 250 ppm): 4%; Test E disease control rating (Botrytis cinerea; 250 ppm): 0%; Test F disease control rating (Alternaria solani; 250 ppm): 0%; Test C disease control rating ([2]; 250 ppm): 0%
COc1c(-c2ccc(F)cc2Cl)c(-c2cc(C#N)ccc2Cl)nn(C)c1=O [Compound 53],100,68,100,92,40,99,–
COc1c(-c2ccc(F)cc2Cl)c(-c2cccc(F)c2F)nn(C)c1=O [Compound 116],100,52,100,98,100,99,–
COc1ccc(Cl)c(-c2nn(C)c(=O)c(Br)c2-c2c(F)cccc2F)c1 [Compound 69],99,100,100,100,100,100,–
CCn1nc(-c2cc(OC)cc(OC)c2)c(-c2ccc(F)cc2Cl)cc1=O [Compound 26],–,–,–,–,–,–,Test B disease control rating ([1]; 250 ppm): 55%; Test D disease control rating (Phakopsora pachyrhizi; 250 ppm): 0%; Test A disease control rating (Zymoseptoria tritici; 250 ppm): 12%; Test E disease control rating (Botrytis cinerea; 250 ppm): 99%; Test F disease control rating (Alternaria solani; 250 ppm): 0%; Test C disease control rating ([2]; 250 ppm): 96%
Cn1nc(-c2ccc(F)cc2Cl)c(-c2ccc(F)cc2Cl)c(CCl)c1=O [Compound 170],89,0,99,51,80,76,–
COc1cc(OC)cc(-c2nn(C)c(=O)c(Br)c2-c2ccc(F)cc2Cl)c1 [Compound 67],100,98,99,99,99,95,–
COc1c(-c2ccc(F)cc2Cl)c(-c2cccc(F)c2Cl)nn(C)c1=O [Compound 154],100,87,100,100,100,100,–
"CCn1nc(-c2c(F)cccc2F)c(-c2cc(OC)cc(OC)c2)cc1=O [Compound 4, 6-(2,6-difluorophenyl)-5-(3,5-dimethoxyphenyl)-2-ethyl-3(2H)-pyridazinone]",–,–,–,–,–,–,pest or weed control at 250 ppm ([1]; 250 ppm): 0%; pest or weed control at 250 ppm (Phakopsora pachyrhizi; 250 ppm): 0%; pest or weed control at 250 ppm (Zymoseptoria tritici; 250 ppm): 66%; pest or weed control at 250 ppm (Botrytis cinerea; 250 ppm): 9%; pest or weed control at 250 ppm (Alternaria solani; 250 ppm): 0%; pest or weed control at 250 ppm ([2]; 250 ppm): 0%
COc1ccc(Cl)c(C2=NN(C)C(=O)CC2c2c(F)cccc2F)c1 (stereo not drawn) [Compound 207],68,0,79,100,0,90,–
COc1cc(F)cc(-c2nn(C)c(=O)cc2-c2c(F)cccc2F)c1 [Compound 27],–,–,–,–,–,–,Test B disease control rating ([1]; 250 ppm): 99%; Test D disease control rating (Phakopsora pachyrhizi; 250 ppm): 56%; Test A disease control rating (Zymoseptoria tritici; 250 ppm): 99%; Test E disease control rating (Botrytis cinerea; 250 ppm): 96%; Test F disease control rating (Alternaria solani; 250 ppm): 0%; Test C disease control rating ([2]; 250 ppm): 97%
COc1ccc(-c2nn(C)c(=O)c(OC)c2-c2ccc(F)cc2Cl)c(F)c1 [Compound 166],91,0,100,95,67,79,–
"Cc1ccc(Cl)c(-c2nn(C)c(=O)c(C)c2-c2ccc(F)cc2Cl)c1 [Compound 136, 5-(2-chloro-4-fluorophenyl)-6-(2-chloro-5-methylphenyl)-2,4-dimethyl-3(2H)-pyridazinone]",–,–,–,–,–,–,pest or weed control at 50 ppm ([1]; 50 ppm): 100%; pest or weed control at 50 ppm (Phakopsora pachyrhizi; 50 ppm): 97%; pest or weed control at 50 ppm (Zymoseptoria tritici; 50 ppm): 99%; pest or weed control at 50 ppm (Botrytis cinerea; 50 ppm): 95%; pest or weed control at 50 ppm (Alternaria solani; 50 ppm): 40%; pest or weed control at 50 ppm ([2]; 50 ppm): 100%
Cn1nc(-c2cc(F)ccc2Br)c(-c2ccc(F)cc2Cl)c(Cl)c1=O [Compound 119],100,99,100,96,100,100,–
